Drawing on ChEMBL document CHEMBL6134911, “Broad Target Screening Reveals Abundance of FKBP12-Based Molecular Glues in Focused Libraries” (J Med Chem, 2025), this text covers Kd and Activity for 11 molecules.

Molecules are shown by their SMILES. The source made the active and inactive calls. No cut-off for these calls is given here.

A short description of experiment [1]: Competitive molecular glue activity at fluorescein maleimide-labeled FKBP12 C22V/E108C mutant (unknown origin)/6 His-tagged BRD4 BD2 domain (unknown origin) assessed as ternary complex formation by measuring dissociation constant incubated for 30 mins by fluorescence polarization analysis. On the set-up: species or system Homo sapiens.
The species named for experiment [2] is Homo sapiens. Put plainly: Competitive molecular glue activity at fluorescein maleimide-labeled FKBP12 C22V/E108C mutant (unknown origin)/6 His-tagged BRD4 BD2 domain (unknown origin) assessed as ternary complex formation incubated for 30 mins in presence of FKBP12 ligand 18(S)-Me 29 by fluorescence polarization analysis. (Polarisation of emitted light reports the rotation of a fluorescent probe.)

For experiment [3], the target named is Bromodomain-containing protein 4 (Homo sapiens) (UniProt O60885). The experiment is described as follows: Displacement of fluorescent JQ1 from BRD4 BD2 (unknown origin) incubated for 30 mins by fluorescence polarization analysis.
Experiment [4] is filed under the species Homo sapiens. The experiment is described as follows: Competitive molecular glue activity at fluorescein maleimide-labeled FKBP12 C22V/E108C mutant (unknown origin)/6 His-tagged BRD4 BD2 domain (unknown origin) assessed as ternary complex formation incubated for 30 mins in presence of JQ1 by fluorescence polarization analysis.
Experiment [5] is filed under the species Homo sapiens. The experiment is described as follows: Competitive molecular glue activity at fluorescein maleimide-labeled FKBP12 C22V/E108C mutant (unknown origin)/6 His-tagged BRD4 BD1 domain (unknown origin) assessed as ternary complex formation incubated for 30 mins by fluorescence polarization analysis.
For experiment [6], the species on record is Homo sapiens. Put plainly: Competitive molecular glue activity at Strep-tagged EGFP-FKBP12 (unknown origin) extracted from Escherichia coli BL21 gold cells/6 His-tagged MBP-STAT4 (unknown origin) assessed as ternary complex formation incubated for 30 mins by HTRF assay. In general terms: In TR-FRET formats the signal depends on donor and acceptor labels being close together.

The species named for experiment [7] is Homo sapiens. Put plainly: Competitive molecular glue activity at fluorescein maleimide-labeled FKBP12 C22V/E108C mutant (unknown origin)/6 His-tagged MBP-STAT4 (unknown origin) assessed as ternary complex formation incubated for 30 mins in presence of FKBP12 ligand 18(S)-Me 29 by fluorescence polarization analysis.
The species entered for experiment [8] is Homo sapiens. The experiment is described as follows: Competitive molecular glue activity at fluorescein maleimide-labeled FKBP12 C22V/E108C mutant (unknown origin)/6 His-tagged MBP-STAT4 (unknown origin) assessed as ternary complex formation incubated for 30 mins by fluorescence polarization analysis.
The species entered for experiment [9] is Homo sapiens. The experiment is described as follows: Competitive molecular glue activity at Strep-tagged EGFP-FKBP12 (unknown origin) extracted from Escherichia coli BL21 gold cells/6 His-tagged BRD4 BD2 domain (unknown origin) assessed as ternary complex formation incubated for 30 mins by HTRF assay.
The species named for experiment [10] is Homo sapiens. The experiment is described as follows: Competitive molecular glue activity at fluorescein maleimide-labeled FKBP12 C22V/E108C mutant (unknown origin)/6 His-tagged BRD4 BD2 domain (unknown origin) assessed as ternary complex formation incubated for 30 mins by fluorescence polarization analysis.
The species named for experiment [11] is Homo sapiens. The experiment is described as follows: Competitive molecular glue activity at fluorescein maleimide-labeled FKBP12 C22V/E108C mutant (unknown origin)/6 His-tagged PTPRN (unknown origin) assessed as ternary complex formation incubated for 30 mins in presence of FKBP12 ligand 18(S)-Me 29 by fluorescence polarization analysis.
Experiment [12] is filed under the species Homo sapiens. Put plainly: Competitive molecular glue activity at fluorescein maleimide-labeled FKBP12 C22V/E108C mutant (unknown origin)/6 His-tagged PTPRN (unknown origin) assessed as ternary complex formation incubated for 30 mins by fluorescence polarization analysis.
The species entered for experiment [13] is Homo sapiens. The experiment is described as follows: Competitive molecular glue activity at Strep-tagged EGFP-FKBP12 (unknown origin) extracted from Escherichia coli BL21 gold cells/6 His-tagged PTPRN (unknown origin) assessed as ternary complex formation incubated for 30 mins by HTRF assay.

As to `C=C[C@@H]1CN(Cc2cn(-c3cc(OC)c(OC)c(OC)c3)nn2)C(=O)[C@@H]2CCC[C@H]1N2S(=O)(=O)c1cc(Cl)cc(Cl)c1`, in experiment [1], the Kd is over 500 µM.

With `C=C[C@@H]1CN(Cc2cn(-c3ccc(OC)c(OC)c3)nn2)C(=O)[C@@H]2CCC[C@H]1N2S(=O)(=O)c1cc(Cl)cc(Cl)c1`, the outcome (in the experiment listed under Homo sapiens [2]; in experiment [3]; in the experiment listed under Homo sapiens [4]; in the experiment filed under Homo sapiens [5]) was inactive. Also, the Kd in [1] turned out to be 27 µM.

In the case of `C=C[C@@H]1CN(Cc2cn(-c3ccc(N(C)C)cc3)nn2)C(=O)[C@@H]2CCC[C@H]1N2S(=O)(=O)c1cc(Cl)cc(Cl)c1`, the Kd in experiment [1] came out at 115 µM.

In the case of `C=C[C@H]1CN(Cc2ccccn2)C(=O)[C@@H]2CCC[C@H]1N2S(=O)(=O)c1cc(-c2ccccc2)c2nc(-c3ccccc3)sc2c1`, the Activity entry in the experiment filed under Homo sapiens [6] and in the experiment filed under Homo sapiens [8] was “Dose-dependent-effect” each time. In addition, the result in the experiment listed under Homo sapiens [7] was inactive.

For the molecule `C=C[C@@H]1CN(Cc2cn(-c3ccc(OC)cc3)nn2)C(=O)[C@@H]2CCC[C@H]1N2S(=O)(=O)c1cc(Cl)cc(Cl)c1`, the result in the experiment listed under Homo sapiens [2] was inactive. Also, the Activity entry in the experiment filed under Homo sapiens [9] and in the experiment listed under Homo sapiens [10] was “Dose-dependent-effect” each time. Moreover, the Kd in experiment [1] amounted to 394 µM.

`C=C[C@@H]1CN(Cc2cn(-c3ccc(OC(C)C)cc3)nn2)C(=O)[C@@H]2CCC[C@H]1N2S(=O)(=O)c1cc(Cl)cc(Cl)c1`: the Kd in [1] stood at 144 µM.

As to `C=C[C@@H]1CN(Cc2cn(-c3ccc(OC)c(Cl)c3)nn2)C(=O)[C@@H]2CCC[C@H]1N2S(=O)(=O)c1cc(Cl)cc(Cl)c1`, the Kd in experiment [1] was 83 µM.

Take `C=C[C@@H]1CN(Cc2cn(-c3ccc(C(C)=O)c(OC)c3)nn2)C(=O)[C@@H]2CCC[C@H]1N2S(=O)(=O)c1cc(Cl)cc(Cl)c1`: the Kd in [1] stood at 22 µM.

For `C=C[C@@H]1CN(Cc2cn(-c3ccc4[nH]ncc4c3)nn2)C(=O)[C@@H]2CCC[C@H]1N2S(=O)(=O)c1cc(Cl)cc(Cl)c1`, in experiment [1], the Kd was 96 µM.

With `COc1ccc(CC[C@@H](OC(=O)[C@@H]2CCCCN2S(=O)(=O)c2cc3c(c([N+](=O)[O-])c2)OCC3)c2cccc(CC(=O)O)c2)cc1OC`, the outcome in the experiment filed under Homo sapiens [11] was inactive. Besides, the Activity result in the experiment filed under Homo sapiens [12] and in the experiment filed under Homo sapiens [13] was “Dose-dependent-effect” in each case.

For `C=C[C@@H]1CN(Cc2cn(-c3ccc(C(C)=O)cc3)nn2)C(=O)[C@@H]2CCC[C@H]1N2S(=O)(=O)c1cc(Cl)cc(Cl)c1`, the Kd in [1] stood at 47 µM.

As a reminder, the Kd is the constant that tells how readily two partners part at equilibrium.
